{"source": "patent US9233979B2", "about": "“Compounds that are ERK inhibitors” (Merck Sharp & Dohme Corp., priority 2012, dated 2016)"}
{"biological_target": "phosphorylated active hERK2 enzyme (Homo sapiens (Human), UniProt P28482)", "sequence (P28482 whole entry)": "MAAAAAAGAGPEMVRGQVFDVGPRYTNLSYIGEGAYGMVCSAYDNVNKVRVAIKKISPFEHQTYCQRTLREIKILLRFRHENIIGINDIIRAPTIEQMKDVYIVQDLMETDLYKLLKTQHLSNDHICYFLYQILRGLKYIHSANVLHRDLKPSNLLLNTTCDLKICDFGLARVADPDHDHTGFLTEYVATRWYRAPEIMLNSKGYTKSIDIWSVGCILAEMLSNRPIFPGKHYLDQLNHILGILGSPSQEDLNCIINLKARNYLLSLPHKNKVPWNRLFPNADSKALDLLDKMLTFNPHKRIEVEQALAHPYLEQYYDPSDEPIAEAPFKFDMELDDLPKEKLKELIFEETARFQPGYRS", "assay": "Active Human ERK2 (hERK2) Activity Assay (IMAP-FP)", "assay_type": "biochemical", "details": "Table 6, 0.5 nM hERK2, 30 μM ATP, 10 point titration, read-out: AERK2 IC50", "procedure,_shortened": "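IMAP fluorescence-polarization kinase assay: 0.5 nM activated hERK2 with 900 nM unlabeled plus 80 nM labeled peptide and 30 μM ATP, reacted 60 min. Quenched with IMAP beads in binding buffer with 24 mM NaCl; FP read after 60 min equilibration.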", "units": {"IC50": "nM"}}
{"smiles": "COC(=O)Nc1n[nH]c2cc(NC(=O)N[C@H](C)c3cccc(F)c3)ncc12", "note": "[Example 299, methyl [6-({[(1R)-1-(3-fluorophenyl)-ethyl]carbamoyl}-amino)-1H-pyrazolo[4,3-c]-pyridin-3-yl}-carbamate]", "IC50": 1.6}
{"smiles": "COC(=O)Nc1n[nH]c2cc(NC(=O)N[C@H](C)c3ccc(F)c(Cl)c3)ncc12", "note": "[Example 300, methyl [6-({[(1R)-1-(3-chloro-4-fluorophenyl)ethyl]carbamoyl}amino)-1H-pyrazolo[4,3-c]pyridin-3-yl]-carbamate]", "IC50": 2.9}
{"smiles": "CC[C@@H](NC(=O)Nc1cc2[nH]nc(NC(=O)OC)c2cn1)c1ccc(Cl)cc1", "note": "[Example 301, methyl [6-({[(1R)-1-(4-chlorophenyl)-propyl]carbamoyl}amino)-1H-pyrazolo[4,3-c]-pyridin-3-yl]-carbamate]", "IC50": 1.4}
{"smiles": "COC(=O)Nc1n[nH]c2cc(NC(=O)N[C@H](C)c3ccc(Cl)c(Cl)c3)ncc12", "note": "[Example 302, methyl [6-({[(1R)-1-(3,4-dichloro-phenyl)ethyl]-carbamoyl}amino)-1H-pyrazolo[4,3-c]pyridin-3-yl]-carbamate]", "IC50": 0.7}
{"smiles": "COC(=O)Nc1n[nH]c2cc(NC(=O)NC(C)c3ccc(F)c(F)c3)ncc12", "note": "(stereo not drawn) [Example 303, methyl [6-({[1-(3,4-difluoro-phenyl)ethyl]-carbamoyl}amino)-1H-pyrazolo[4,3-c]pyridin-3-yl]-carbamate]", "IC50": 3.1}
{"smiles": "COC(=O)Nc1n[nH]c2cc(NC(=O)N[C@H](C)c3ccc(Cl)c(C)c3)ncc12", "note": "[Example 304, methyl [6-({[(1R)-1-(4-chloro-3-methyl-phenyl)ethyl}-carbamoyl}amino)-1H-pyrazolo[4,3-c]pyridin-3-yl]-carbamate]", "IC50": 3.4}
{"smiles": "COC(=O)Nc1n[nH]c2cc(NC(=O)N[C@H](C)c3ccccc3F)ncc12", "note": "[Example 305, methyl [6-({[(1R)-1-(2-fluorophenyl)-ethyl]carbamoyl}-amino)-1H-pyrazolo[4,3-c]-pyridin-3-yl]-carbamate]", "IC50": 7.3}
{"smiles": "COC(=O)Nc1n[nH]c2cc(NC(=O)N[C@H](C)c3ccc(Cl)c(F)c3)ncc12", "note": "[Example 306, methyl [6-({[(1R)-1-(4-chloro-3-fluorophenyl)ethyl]carbamoyl}amino)-1H-pyrazolo[4,3-c]pyridin-3-yl]-carbamate]", "IC50": 1.5}
{"smiles": "COC(=O)Nc1n[nH]c2cc(NC(=O)N[C@H](C)c3ccc(Cl)c(O)c3)ncc12", "note": "[Example 307, methyl [6-({[(1R)-1-(4-chloro-3-hydroxyphenyl)-ethyl]carbamoyl}-amino)-1H-pyrazolo[4,3-c]-pyridin-3-yl]-carbamate]", "IC50": 1.7}
{"smiles": "C[C@@H](NC(=O)Nc1cc2[nH]nc(NC(=O)N[C@H](C)c3ccc(Cl)c(O)c3)c2cn1)c1ccc(Cl)c(O)c1", "note": "[Example 308, N′,N″′-1H-pyrazolo[4,3-c]-pyridine-3,6-diylbis{1-[(1R)-1-(4-chloro-3-hydroxyphenyl)-ethyl]urea}]", "IC50": 461}
{"smiles": "COC(=O)Nc1n[nH]c2cc(NC(=O)N[C@H](C)c3ccc(Cl)c(C(F)(F)F)c3)ncc12", "note": "[Example 309, methyl {6-[({(1R)-1-[4-chloro-3-(trifluoromethyl)-phenyl]ethyl}-carbamoyl)amino]-1H-pyrazolo[4,3-c]pyridin-3-yl}-carbamate]", "IC50": 3.6}
{"smiles": "C[C@@H](NC(=O)Nc1cc2[nH]nc(NC(=O)N[C@H](C)c3ccc(Cl)c(C(F)(F)F)c3)c2cn1)c1ccc(Cl)c(C(F)(F)F)c1", "note": "[Example 310, N′,N″′-1H-pyrazolo[4,3-c]-pyridine-3,6-diylbis(1-{(1R)-1-[4-chloro-3-(trifluoromethyl)-phenyl]ethyl}urea)]", "IC50": 2450}
{"smiles": "COC(=O)Nc1n[nH]c2cc(NC(=O)N[C@H](C)c3ccc(Cl)nc3)ncc12", "note": "[Example 311, methyl [6-({[(1R)-1-(6-chloropyridin-3-yl)ethyl]-carbamoyl}amino)-1H-pyrazolo[4,3-c]pyridin-3-yl]-carbamate]", "IC50": 19.1}
{"smiles": "C[C@@H](NC(=O)Nc1cc2[nH]nc(NC(=O)N[C@H](C)c3ccc(Cl)nc3)c2cn1)c1ccc(Cl)nc1", "note": "[Example 312, N′,N″′-1H-pyrazolo[4,3-c]pyridine-3,6-diylbis{1-[(1R)-1-(6-chloropyridin-3-yl)ethyl]urea}]", "IC50": 134}
{"smiles": "CCNC(=O)Nc1n[nH]c2cc(NC(=O)N[C@H](C)c3ccccc3)ncc12", "note": "[Example 313, (R)-1-(3-(3-ethylureido)-1H-pyrazolo[4,3-c]pyridin-6-yl)-3-(1-phenylethyl)urea]", "IC50": 5.6}
{"smiles": "COc1cc([C@@H](C)NC(=O)Nc2cc3[nH]nc(NC(=O)N[C@H](C)c4ccc(Cl)c(OC)c4)c3cn2)ccc1Cl", "note": "[Example 314, 1,1′-(1H-pyrazolo[4,3-c]pyridine-3,6-diyl)bis(3-((R)-1-(4-chloro-3-methoxyphenyl)ethyl)urea)]", "IC50": 732}
{"smiles": "CCOC(=O)Nc1n[nH]c2cc(NC(=O)N[C@H](C)c3ccccc3)ncc12", "note": "[Example 315, (R)-ethyl(6-(3-(1-phenylethyl)ureido)-1H-pyrazolo[4,3-c]pyridin-3-yl)carbamate]", "IC50": 10}
{"smiles": "C[C@@H](NC(=O)Nc1cc2[nH]nc(NCc3cccnc3)c2cn1)c1ccccc1", "note": "[Example 316, (R)-1-(1-phenylethyl)-3-(3-((pyridin-3-ylmethyl)amino)-1H-pyrazolo[4,3-c]pyridin-6-yl)urea]", "IC50": 0.7}
{"smiles": "C[C@@H](NC(=O)Nc1cc2[nH]nc(NC(=O)C3CC3)c2cn1)c1ccccc1", "note": "[Example 317, (R)—N-(6-(3-(1-phenylethyl)ureido)-1H-pyrazolo[4,3-c]pyridin-3-yl)cyclopropanecarboxamide]", "IC50": 1}
{"smiles": "COCC(=O)Nc1n[nH]c2cc(NC(=O)N[C@H](C)c3ccccc3)ncc12", "note": "[Example 318, (R)-2-methoxy-N-(6-(3-(1-phenylethyl)ureido)-1H-pyrazolo[4,3-c]pyridin-3-yl)acetamide]", "IC50": 2.2}
{"smiles": "COC[C@@H](NC(=O)Nc1cc2[nH]nc(NC(=O)C(C)C)c2cn1)c1ccccc1", "note": "[Example 319, (S)-N-(6-(3-(2-methoxy-1-phenylethyl)ureido)-1H-pyrazolo[4,3-c]pyridin-3-yl)-isobutyramide]", "IC50": 0.4}
{"smiles": "CCNc1n[nH]c2cc(NC(=O)NC(CC)c3ccccn3)ncc12", "note": "(stereo not drawn) [Example 320, 1-(3-(ethylamino)-1H-pyrazolo[4,3-c]pyridin-6-yl)-3-(1-(pyridin-2-yl)propyl)urea]", "IC50": 33}
{"smiles": "COC(=O)Nc1n[nH]c2cc(NC(=O)N[C@H](C)c3ccc(F)cc3)ncc12", "note": "[Example 321, (R)-methyl (6-(3-(1-(4-fluorophenyl)ethyl)ureido)-1H-pyrazolo[4,3-c]pyridin-3-yl)carbamate]", "IC50": 2.6}
{"smiles": "COC[C@H](NC(=O)Nc1ncc2c(NC(C)C)n[nH]c2c1F)c1ccccc1", "note": "[Example 323, 1-{7-fluoro-3-[(1-methylethyl)amino]-1H-pyrazolo[4,3-c]pyridin-6-yl}-3-[(1R)-2-methoxy-1-phenylethyl]urea]", "IC50": 4.1}
{"smiles": "CC(C)Nc1n[nH]c2cc(NC(=O)N[C@H](C)c3ccccc3)ncc12", "note": "[Example 325, 1-{3-[(1-methyl-ethyl)amino]-1H-pyrazolo[4,3-c]-pyridin-6-yl}-3-[(1R)-1-phenylethyl]urea]", "IC50": 1.5}
{"smiles": "C[C@@H](NC(=O)Nc1cc2[nH]nc(NC3CCOCC3)c2cn1)c1ccccc1", "note": "[Example 327, 1-[(1R)-1-phenylethyl]-3-[3-(tetrahydro-2H-pyran-4-ylamino)-1H-pyrazolo[4,3-c]pyridin-6-yl]urea]", "IC50": 1}
{"smiles": "COC[C@@H](NC(=O)Nc1cc2[nH]nc(NC3CCOCC3)c2cn1)c1ccccc1", "note": "[Example 328, 1-[(1S)-2-methoxy-1-phenylethyl]-3-[3-(tetrahydro-2H-pyran-4-ylamino)-1H-pyrazolo[4,3-c]pyridin-6-yl]urea]", "IC50": 0.8}
{"smiles": "COC[C@@H](NC(=O)Nc1cc2[nH]nc(NC3CC3)c2cn1)c1ccccc1", "note": "[Example 329, 1-[3-(cyclopropyl-amino)-1H-pyrazolo[4,3-c]-pyridin-6-yl]-3-[(1S)-2-methoxy-1-phenylethyl]urea]", "IC50": 1}
{"smiles": "C[C@@H](NC(=O)Nc1cc2[nH]nc(NC3CC3)c2cn1)c1ccccc1", "note": "[Example 330, 1-[3-(cyclopropyl-amino)-1H-pyrazolo[4,3-c]pyridin-6-yl]-3-[(1R)-1-phenylethyl]urea]", "IC50": 0.9}
{"smiles": "CCNc1n[nH]c2cc(NC(=O)N[C@H](C)c3ccccc3)nc(C)c12", "note": "[Example 331, (R)-1-(3-(ethylamino)-4-methyl-1H-pyrazolo[4,3-c]pyridin-6-yl)-3-(1-phenylethyl)urea]", "IC50": 2.9}
{"smiles": "Cc1nc(NC(=O)N[C@H](C)c2ccccc2)cc2[nH]nc(N3CCC[C@H]3C(=O)O)c12", "note": "[Example 332, 1-[4-methyl-6-({[(1R)-1-phenyl-ethyl]carbamoyl}-amino)-1H-pyrazolo[4,3-c]-pyridin-3-yl]proline]", "IC50": 74.7}
{"smiles": "Cc1nc(NC(=O)N[C@H](C)c2ccccc2)cc2[nH]nc(N)c12", "note": "[Example 333, (R)-1-(3-amino-4-methyl-1H-pyrazolo[4,3-c]pyridin-6-yl)-3-(1-phenylethyl)urea]", "IC50": 0.7}
{"smiles": "CCNc1n[nH]c2cc(NC(=O)N[C@H](COC)c3ccccc3)nc(C)c12", "note": "[Example 334, 1-[3-(ethylamino)-4-methyl-1H-pyrazolo[4,3-c]-pyridin-6-yl]-3-[(1S)-2-methoxy-1-phenylethyl]urea]", "IC50": 2.9}
{"smiles": "COC[C@@H](NC(=O)Nc1cc2[nH]nc(N)c2c(C)n1)c1ccccc1", "note": "[Example 335, 1-(3-amino-4-methyl-1H-pyrazolo[4,3-c]-pyridin-6-yl)-3-[(1S)-2-methoxy-1-phenylethyl]urea]", "IC50": 3}
{"smiles": "CNc1n[nH]c2cc(NC(=O)N[C@H](C)c3ccccc3)nc(C)c12", "note": "[Example 336, 1-[4-methyl-3-(methylamino)-1H-pyrazolo[4,3-c]pyridin-6-yl]-3-[(1R)-1-phenylethyl]urea]", "IC50": 11.8}
{"smiles": "CC(=O)Nc1n[nH]c2cc(NC(=O)N[C@H](C)c3ccccc3)nc(C)c12", "note": "[Example 337, (R)—N-(4-methyl-6-(3-(1-phenylethyl)ureido)-1H-pyrazolo[4,3-c]pyridin-3-yl)acetamide]", "IC50": 127}
